From patent publication US6653321B1, “Naphthylsulfonic acids and related compounds as glucose uptake agonists” (Telik, Inc., priority 1999, dated 2003)

Each molecule was assayed against T1, β-kinase domain of the human insulin receptor (CKD) (Homo sapiens, UniProt P06213) (assay: 32P-Cytoplasmic Kinase Domain (CKD) autophosphorylation assay). Conditions: 32P incorporated into CKD band, percentage of the vehicle (DMSO) level; 10 minutes at room temperature; compound concentration not given.
T1 construct: The complete β-kinase domain of the human insulin receptor (CKD); made in house
Assay type: biochemical
Procedure: The complete β-kinase domain of the human insulin receptor (CKD) was expressed in, and purified from, baculovirus. CKD (4.0 μg/mL), in a solution of 50 mM Tris.HCl, 2 mM MnCl2, 10 mM MgCl2 (50 μl final volume), was combined with […] ATP, and 5 μCi ^32P-ATP (3000 Ci/mmol.). A test compound, or the vehicle (DMSO), was added to a final DMSO concentration of 1%. The mixture was incubated for 10 minutes at room temperature. The reaction was terminated by the addition of 10 μl of 200 mM EDTA. A 30 μl volume was removed, mixed with 5 μl of 6×Laemmeli sodium dodecyl sulfate (SDS) treatment buffer, and heated to 94° C. for 5 minutes. A 20 μl aliquot was then run on an SDS-PAGE gel. The radioactivity incorporated into the CKD band is quantified by phosphorimaging of the gel, or scintillation counting of the excised bands.
The potency of a compound for increasing phosphorylation is expressed as a percentage of the vehicle level.

T1 sequence (P06213 980-1382 limits assumed): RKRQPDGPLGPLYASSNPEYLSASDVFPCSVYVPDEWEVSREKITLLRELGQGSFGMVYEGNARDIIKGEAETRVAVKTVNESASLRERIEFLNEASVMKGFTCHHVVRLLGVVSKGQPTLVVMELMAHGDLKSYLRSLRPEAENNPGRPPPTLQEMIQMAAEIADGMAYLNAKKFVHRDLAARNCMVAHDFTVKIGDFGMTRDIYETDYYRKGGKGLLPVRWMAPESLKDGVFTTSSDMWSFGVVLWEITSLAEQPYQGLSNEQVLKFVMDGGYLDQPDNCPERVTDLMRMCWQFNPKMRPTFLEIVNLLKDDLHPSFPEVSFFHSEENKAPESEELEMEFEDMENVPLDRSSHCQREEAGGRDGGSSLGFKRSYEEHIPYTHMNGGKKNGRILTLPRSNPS

Row | Activity (% Control) | SMILES
1 | 93.3 | Cc1cccc(C(=O)Nc2cc(C(=O)Nc3cccc4cc(S(=O)(=O)O)ccc34)cc(C(=O)Nc3cccc4cc(S(=O)(=O)O)ccc34)c2)c1 [Compound 7, 5-({3-[(3-methylphenyl)carbonylamino]-5-[N-(6-sulfonaphthyl)carbamoyl]phenyl}carbonylamino)naphthalene-2-sulfonic acid]
2 | 130.5 | Cc1ccc(C(=O)Nc2cc(C(=O)Nc3cccc4cc(S(=O)(=O)O)ccc34)cc(C(=O)Nc3cccc4cc(S(=O)(=O)O)ccc34)c2)cc1 [Compound 8, 5-({3-[(4-methylphenyl)carbonylamino]-5-[N-(6-sulfonaphthyl)carbamoyl]phenyl}carbonylamino)naphthalene-2-sulfonic acid]
3 | 125.3 | COc1ccc(C(=O)Nc2cc(C(=O)Nc3cccc4cc(S(=O)(=O)O)ccc34)cc(C(=O)Nc3cccc4cc(S(=O)(=O)O)ccc34)c2)cc1 [Compound 9, 5-({3-[(4-methoxyphenyl)carbonylamino]-5-[N-(6-sulfonaphthyl)carbamoyl]phenyl}carbonylamino)naphthalene-2-sulfonic acid]
4 | 123.1 | O=C(Nc1cc(C(=O)Nc2cccc3cc(S(=O)(=O)O)ccc23)cc(C(=O)Nc2cccc3cc(S(=O)(=O)O)ccc23)c1)c1cccc(Cl)c1 [Compound 10, 5-({3-[(3-chlorophenyl)carbonylamino]-5-[N-(6-sulfonaphthyl)carbamoyl]phenyl}carbonylamino)naphthalene-2-sulfonic acid]
5 | 133.0 | O=C(Nc1cccc2cc(S(=O)(=O)O)ccc12)c1cc(NS(=O)(=O)c2ccc(F)cc2)cc(C(=O)Nc2cccc3cc(S(=O)(=O)O)ccc23)c1 [Compound 51, 5-[(3-{[(4-fluorophenyl)sulfonyl]amino}-5-[N-(6-sulfonaphthyl)carbamoyl]phenyl)carbonylamino]naphthalene-2-sulfonic acid]
6 | 111.1 | COc1ccc(S(=O)(=O)Nc2cc(C(=O)Nc3cccc4cc(S(=O)(=O)O)ccc34)cc(C(=O)Nc3cccc4cc(S(=O)(=O)O)ccc34)c2)cc1 [Compound 52, 5-[(3-{[(4-methoxyphenyl)sulfonyl]amino}-5-[N-(6-sulfonaphthyl)carbamoyl]phenyl)carbonylamino]naphthalene-2-sulfonic acid]
7 | 105.7 | Cc1ccc(S(=O)(=O)Nc2cc(C(=O)Nc3cccc4cc(S(=O)(=O)O)ccc34)cc(C(=O)Nc3cccc4cc(S(=O)(=O)O)ccc34)c2)cc1 [Compound 53, 5-[(3-{[(4-methylphenyl)sulfonyl]amino}-5-[N-(6-sulfonaphthyl)carbamoyl]phenyl)carbonylamino]naphthalene-2-sulfonic acid]
8 | 46.5 | O=C(Nc1cccc2cc(S(=O)(=O)O)ccc12)c1cc(NS(=O)(=O)c2cccc3ccccc23)cc(C(=O)Nc2cccc3cc(S(=O)(=O)O)ccc23)c1 [Compound 54, 5-({3-[(1-naphthylsulfonyl)amino]-5-[N-(6-sulfonaphthyl)carbamoyl]phenyl}carbonylamino)naphthalene-2-sulfonic acid]
9 | 121.6 | Cc1cc(C)c(S(=O)(=O)Nc2cc(C(=O)Nc3cccc4cc(S(=O)(=O)O)ccc34)cc(C(=O)Nc3cccc4cc(S(=O)(=O)O)ccc34)c2)c(C)c1 [Compound 55, 5-[(3-{[(2,4,6-trimethylphenyl)sulfonyl]amino}-5-[N-(6-sulfonaphthyl)carbamoyl]phenyl)carbonylamino]naphthalene-2-sulfonic acid]
10 | 102.4 | O=C(Nc1cccc2cc(S(=O)(=O)O)ccc12)c1cc(NS(=O)(=O)Cc2ccccc2)cc(C(=O)Nc2cccc3cc(S(=O)(=O)O)ccc23)c1 [Compound 56, 5-[(5-{[benzylsulfonyl]amino}-3-[N-(6-sulfonaphthyl)carbamoyl]phenyl)carbonylamino]naphthalene-2-sulfonic acid]
11 | 109.6 | O=C(Nc1cccc(Cl)c1)Nc1cc(C(=O)Nc2cccc3cc(S(=O)(=O)O)ccc23)cc(C(=O)Nc2cccc3cc(S(=O)(=O)O)ccc23)c1 [Compound 57, 5-[(3-{[(3-chlorophenyl)amino]carbonylamino}-5-[N-(6-sulfonaphthyl)carbamoyl]phenyl)carbonylamino]naphthalene-2-sulfonic acid]
12 | 106.4 | O=C(Nc1ccc(Cl)cc1)Nc1cc(C(=O)Nc2cccc3cc(S(=O)(=O)O)ccc23)cc(C(=O)Nc2cccc3cc(S(=O)(=O)O)ccc23)c1 [Compound 58, 5-[(3-{[(4-chlorophenyl)amino]carbonylamino}-5-[N-(6-sulfonaphthyl)carbamoyl]phenyl)carbonylamino]naphthalene-2-sulfonic acid]
13 | 120.4 | O=C(Nc1cc(C(=O)Nc2cccc3cc(S(=O)(=O)O)ccc23)cc(C(=O)Nc2cccc3cc(S(=O)(=O)O)ccc23)c1)Nc1ccccc1Cl [Compound 59, 5-[(3-{[(2-chlorophenyl)amino]carbonylamino}-5-[N-(6-sulfonaphthyl)carbamoyl]phenyl)carbonylamino]naphthalene-2-sulfonic acid]
14 | 97.5 | Cc1ccccc1NC(=O)Nc1cc(C(=O)Nc2cccc3cc(S(=O)(=O)O)ccc23)cc(C(=O)Nc2cccc3cc(S(=O)(=O)O)ccc23)c1 [Compound 60, 5-[(3-{[(2-methylphenyl)amino]carbonylamino}-5-[N-(6-sulfonaphthyl)carbamoyl]phenyl)carbonylamino]naphthalene-2-sulfonic acid]
15 | 114.6 | Cc1cccc(NC(=O)Nc2cc(C(=O)Nc3cccc4cc(S(=O)(=O)O)ccc34)cc(C(=O)Nc3cccc4cc(S(=O)(=O)O)ccc34)c2)c1 [Compound 61, 5-[(3-{[(3-methylphenyl)amino]carbonylamino}-5-[N-(6-sulfonaphthyl)carbamoyl]phenyl)carbonylamino]naphthalene-2-sulfonic acid]
16 | 102.8 | Cc1ccc(NC(=O)Nc2cc(C(=O)Nc3cccc4cc(S(=O)(=O)O)ccc34)cc(C(=O)Nc3cccc4cc(S(=O)(=O)O)ccc34)c2)cc1 [Compound 62, 5-[(3-{[(4-methylphenyl)amino]carbonylamino}-5-[N-(6-sulfonaphthyl)carbamoyl]phenyl)carbonylamino]naphthalene-2-sulfonic acid]
17 | 94.4 | COc1ccccc1NC(=O)Nc1cc(C(=O)Nc2cccc3cc(S(=O)(=O)O)ccc23)cc(C(=O)Nc2cccc3cc(S(=O)(=O)O)ccc23)c1 [Compound 63, 5-[(3-{[(2-methoxyphenyl)amino]carbonylamino}-5-[N-(6-sulfonaphthyl)carbamoyl]phenyl)carbonylamino]naphthalene-2-sulfonic acid]
18 | 58.3 | COc1cccc(NC(=O)Nc2cc(C(=O)Nc3cccc4cc(S(=O)(=O)O)ccc34)cc(C(=O)Nc3cccc4cc(S(=O)(=O)O)ccc34)c2)c1 [Compound 64, 5-[(3-{[(3-methoxyphenyl)amino]carbonylamino}-5-[N-(6-sulfonaphthyl)carbamoyl]phenyl)carbonylamino]naphthalene-2-sulfonic acid]
19 | 85.9 | COc1ccc(NC(=O)Nc2cc(C(=O)Nc3cccc4cc(S(=O)(=O)O)ccc34)cc(C(=O)Nc3cccc4cc(S(=O)(=O)O)ccc34)c2)cc1 [Compound 65, 5-[(3-{[(4-methoxyphenyl)amino]carbonylamino}-5-[N-(6-sulfonaphthyl)carbamoyl]phenyl)carbonylamino]naphthalene-2-sulfonic acid]
20 | 115.5 | O=C(Nc1ccccc1)Nc1cc(C(=O)Nc2cccc3cc(S(=O)(=O)O)ccc23)cc(C(=O)Nc2cccc3cc(S(=O)(=O)O)ccc23)c1 [Compound 66, 5-({3-[(phenylamino)carbonylamino]-5-[N-(6-sulfonaphthyl)carbamoyl]phenyl}carbonylamino)naphthalene-2-sulfonic acid]

These molecules were tested on 3T3 L1 fibroblasts (assay: Glucose transport activity (14C-2-deoxy-D-glucose uptake)). Conditions: Mus musculus; differentiated 3T3 L1 cells, insulin 5.6 nM; concentration giving increase in glucose transport generally 150% of the vehicle control.
Assay type: cell-based
Procedure: 3T3 L1 fibroblasts (ATCC) were grown in Dulbecco's modified Eagle's medium (DMEM) with 10% fetal bovine serum (FBS, medium). The cells were plated at a density of 3×10^4 cells/well in 24-well plates. Two days after confluence was reached, the cells were treated for 3 days with 0.5 mM isobutylmethylxanthine (IBMX), 1 μM dexamethasone, supplemented with 1.7 μM insulin. The cells were then transferred to medium with 1.7 μM insulin for 2 more days. The cells were maintained in medium for an additional 4 days. Finally the cells were serum starved overnight in 0.1% bovine serum albumin (BSA) in DMEM.
The following day, the culture medium was replaced with 150 mM NaCl, 1.7 mM KCl, 0.9 mM CaCl2, 1.47 mM K2HPO4 (pH 7.4) to which was added either the experimental compounds, or their vehicle (DMSO). Insulin or its vehicle (0.01% BSA) was diluted in the assay buffer (containing test compound or vehicle, respectively) to a final concentration of 5.6 nM. After incubation for 30 min at 37° C. 5 μCi/mL ^14C-2-[…]-D-glucose was added, and the incubation was continued for additional 30 min at 37° C. The cells were then washed 3 times with ice-cold PBS/20 mM glucose and […] in 250 μl of lysis buffer (50 mM HEPES pH 7.6, 1% Triton X-100) for 30 min at room temperature. Radioactivity in the lysate was quantified by scintillation counting.
Once ^14C-2-deoxy-D-glucose is transported into the cell it is not released. Glucose transport is, therefore, proportional to the amount of radioactivity in the lysate. The concentration of compound necessary to produce an increase in glucose transport greater than the sum of the standard deviation of the vehicle control plus the largest standard deviation of a test sample (generally 150% of the vehicle control) was recorded as the EC (effective concentration).

Row | SMILES | EC50 [µM]
21 | Cc1cccc(C(=O)Nc2cc(C(=O)Nc3cccc4cc(S(=O)(=O)O)ccc34)cc(C(=O)Nc3cccc4cc(S(=O)(=O)O)ccc34)c2)c1 [Compound 7, 5-({3-[(3-methylphenyl)carbonylamino]-5-[N-(6-sulfonaphthyl)carbamoyl]phenyl}carbonylamino)naphthalene-2-sulfonic acid] | > 250
22 | Cc1ccc(C(=O)Nc2cc(C(=O)Nc3cccc4cc(S(=O)(=O)O)ccc34)cc(C(=O)Nc3cccc4cc(S(=O)(=O)O)ccc34)c2)cc1 [Compound 8, 5-({3-[(4-methylphenyl)carbonylamino]-5-[N-(6-sulfonaphthyl)carbamoyl]phenyl}carbonylamino)naphthalene-2-sulfonic acid] | 3
23 | COc1ccc(C(=O)Nc2cc(C(=O)Nc3cccc4cc(S(=O)(=O)O)ccc34)cc(C(=O)Nc3cccc4cc(S(=O)(=O)O)ccc34)c2)cc1 [Compound 9, 5-({3-[(4-methoxyphenyl)carbonylamino]-5-[N-(6-sulfonaphthyl)carbamoyl]phenyl}carbonylamino)naphthalene-2-sulfonic acid] | 10
24 | O=C(Nc1cc(C(=O)Nc2cccc3cc(S(=O)(=O)O)ccc23)cc(C(=O)Nc2cccc3cc(S(=O)(=O)O)ccc23)c1)c1cccc(Cl)c1 [Compound 10, 5-({3-[(3-chlorophenyl)carbonylamino]-5-[N-(6-sulfonaphthyl)carbamoyl]phenyl}carbonylamino)naphthalene-2-sulfonic acid] | 20
